In US20100010078A1, “METHODS OF TREATING ANDROGEN DEPENDENT PROSTATE CANCER BY ADMINISTERING AN ACTIVE PHARMACEUTICAL INGREDIENT BEING FISETIN, 3,3',4',7-TETRAHYDROXYFLAVONE OR A DERIVATIVE THEREOF, IN AN ORAL, TRANSDERMAL OR TOPICAL DOSAGE FORM” (priority 2008, published 2010):

How the values were obtained:
Format in all cases: cell-based, human
LNCaP cells [1] = test: Apoptosis assessment by annexin-V staining; settings: fisetin 10-60 μM, 48 h
Description: Apoptosis assessment by annexin-V staining. The Annexin-V-Fluos staining kit was used for the detection of apoptotic cells according to vendor's protocol. This kit uses a staining protocol in which the apoptotic cells are stained with annexin-V (green fluorescence). The LNCaP cells were grown to 70% confluency and treated with fisetin (10-60 μM) for 48 h. The fluorescence was measured by a Zeiss 410 confocal microscope (Thornwood, N.Y.). Confocal images of green annexin-FITC fluorescence were collected using 488 nm excitation light from an argon/krypton laser, a 560 nm dichroic mirror and a 514-540 nm bandpass barrier filter.

caspase-3, -8 and -9 = test: Western blot, active caspase-3, -8 and -9 in LNCaP cells; settings: fisetin 10-60 μM, 48 h
Description: (§1) Protein extraction and western blotting. Following the treatment of LNCaP cells with fisetin (10-60 μM; 48 h), the media was aspirated, the cells were washed with cold PBS (pH 7.4), and ice-cold lysis buffer (50 mM Tris-HCl, 150 mM NaCl, 1 mM EGTA, 1 mM EDTA, 20 mM NaF, 100 mM Na3VO4, 0.5% NP-40, 1% Triton X-100, 1 mM PMSF (pH 7.4)) with freshly added protease inhibitor cocktail (Protease Inhibitor Cocktail Set III, Calbiochem, La Jolla, Calif.) over ice for 30 min. The cells were scraped and the lysate was collected in a microfuge tube and passed through a needle to break up the cell aggregates. […]
(§2) For western blotting, 30-50 μg protein was resolved over 8-12% polyacrylamide gels and transferred to a nitrocellulose membrane. The blot was blocked in blocking buffer (5% nonfat dry milk/1% Tween 20; in 20 mM TBS, pH 7.6) for 1 hr at room temperature, incubated with appropriate monoclonal or polyclonal primary antibody in blocking buffer for 1.5 h to overnight at 4° C., followed by incubation with anti-mouse or anti-rabbit secondary antibody horseradish peroxidase conjugate obtained from Amersham Life Science Inc. and detected by chemiluminescence and autoradiography using XAR-5 film obtained from Eastman Kodak Co. (Rochester, N.Y., USA). […]

LNCaP cells [2] = test: Apoptosis by Cell Death Detection ELISAPLUS; settings: 48 h
Description: Apoptosis by ELISA. Following treatment of LNCaP cells with fisetin (10-60 μM; 48 h), the extent of apoptosis was determined by Cell Death Detection ELISA^PLUS assay, according to the manufacturer's protocol. The whole cell lysate (40 μg of total protein) was added to the lysis buffer and pipetted on a streptavidin-coated 96-well microtiter plate to which the immunoreagent mix was added and incubated for 2 h at room temperature, with continuous shaking at 500 rpm. The wells were then washed with washing buffer, the substrate solution added, the color developed (10-20 min) was read at 405 nm against the blank, reference wavelength of 490 nm. The enrichment factor (total amount of apoptosis) was calculated by dividing the absorbance of the sample (A405 nm) by the absorbance of the controls without treatment ([…]).

LNCaP cells [3] = test: DNA cell cycle analysis by flow cytometry; settings: 48 h
Description: DNA Cell Cycle Analysis. The LNCaP cells (50-60% confluent) were treated with fisetin (10-60 μM; 48 h) in complete medium. The cells were trypsinized thereafter, washed twice with cold PBS and centrifuged. The cell pellet was resuspended in 50 μl cold PBS to which cold methanol (450 μL) was added and the cells were incubated for 1 h at 4° C. The cells were centrifuged at 1,100 rpm for 5 minutes, pellet washed twice with cold PBS, suspended in 500 μl PBS and incubated with 5 μl RNase (20 μg/ml final concentration) for 30 min. The cells were chilled over ice for 10 min and incubated with propidium iodide (50 μg/ml final concentration) for 1 h for analysis by flow cytometry. Flow cytometry was performed with a FACScan (Becton Dickinson). A minimum of 10,000 cells per sample were collected and the DNA histograms were further analyzed by using ModiFitLT software (Verily Software House, Topsham, Me.) for cell cycle analysis.

WAF1/p21 and KIP1/p27 = test: Western blot, WAF1/p21 and KIP1/p27 in LNCaP cells; settings: fisetin 10-60 μM, 48 h
Description: as §1, §2

caspase-3 and -7 = test: Immunofluorescence staining for active caspase-3 and -7; settings: LNCaP, fisetin only 40 μM, 48 h
Description: Immunofluorescence staining for active caspase-3 and -7. LNCaP cells were incubated with 40 μM concentration of the general caspase inhibitor Z-VAD-FMK for 2 h, followed by the addition of fisetin (40 μM; 48 h) and then harvested. ICT's Magic Red™ substrate-based MR-Caspase assay kit was used for the immunofluorescence staining for caspase-3 and -7. This kit utilizes the fluorophore, cresyl violet. As the 4 amino acid sequence, aspartylglutamylalanylaspartic acid (DEVD) is the optimal sequence for caspase -3 as well as -7, it was coupled to cresyl violet to create the caspase 3/7 substrate, MR-(DEVD)2. […] Following enzymatic hydrolysis at one or both of the aspartic acid amide linkage sites, the mono and non-substituted cresyl violet fluorophores fluoresce red and fluorescence photographs were obtained at 510-560 nm excitation and 610 nm emission.

cdk2, cdk4 and cdk6 = test: Western blot, cdks in LNCaP cells; settings: fisetin 10-60 μM, 48 h
Description: as §1, §2

immunofluorescence staining of active caspase-3 & 7 (caspase-3 and -7): intense staining
SMILES: O=c1c(O)c(-c2ccc(O)c(O)c2)oc2cc(O)ccc12 [fisetin, 3,3′,4′,7-tetrahydroxyflavone]
apoptotic cells by annexin-V staining (LNCaP cells [1]): increased | activation of caspase-3, -8 and -9 (caspase-3, -8 and -9): dose-dependent increase | apoptosis as compared to control (LNCaP cells [2]; fisetin 10 μM): 40% | apoptosis as compared to control (LNCaP cells [2]; fisetin 20 μM): 64% | apoptosis as compared to control (LNCaP cells [2]; fisetin 40 μM): 103% | apoptosis as compared to control (LNCaP cells [2]; fisetin 60 μM): 106% | G1 phase cell cycle distribution (LNCaP cells [3]; fisetin 10 μM): 61% | G1 phase cell cycle distribution (LNCaP cells [3]; fisetin 20 μM): 63% | G1 phase cell cycle distribution (LNCaP cells [3]; fisetin 40 μM): 67% | G1 phase cell cycle distribution (LNCaP cells [3]; fisetin 60 μM): 69% | protein expression of WAF1/p21 and KIP1/p27 (WAF1/p21 and KIP1/p27): induction | protein expression of cdk2, 4 and 6 (cdk2, cdk4 and cdk6): dose-dependent decrease
